Source: patent US6444703B1, “Cyclohexane carbocyclic ester derivative and cyclodextrin complex and composition for treatment of helicobacter pylori infections” (Teikoku Chemical Industries Co., Ltd., priority 1995, dated 2002)
Several values for one entry are separate records, joined by “and”; a condition that tells them apart may be missing. Equal entries are not always repeated. Where two headings read alike, the source gives them in different places.

Tests used:
[1] = Solubility measurement (excess added to solvent, shaken one hour, supernatant assayed); format: physicochemical; details: thermodynamic from solid, 25° C.
Protocol: Incidentally, the method for measuring the solubility in each example is as follows. Thus, an excessive amount of the present compound was added to a certain amount of solvent, the mixture was shaken for one hour, the supernatant liquid was removed and the amount of the present compound contained therein was measured wherefrom the solubility was calculated.

[2] = test system: Helicobacter pylori ATCC 43504; assay: Eradication of Helicobacter pylori in stomach of infected Mongolian gerbils (viable cell counting); format: in vivo; details: oral 10 ml/kg three times on the 11th day, stomach viable cells 20 hours after final administration, individual animals 1-3, versus control 3.7 × 10^4 CFU/stomach, hydrochloride
Protocol: Helicobacter pylori ATCC 43504 (100 μl) was inoculated into Brain heart infusion broth containing 10% calf serum and incubated at 37° C. for 24 hours in a microaerophilic atmosphere. The culture broth (0.5 ml containing about 3×10^8 CFU/ml) was administered orally to Mongolian gerbils (MON/Jms/Gba Slc; male of six weeks age) after fasting for 24 hours, then neither feed nor water was given for four hours and, after that, the animals were given with feed and water for ten days. Three infected animals as prepared in (1) were used per group. They were fasted from 20 hours before the 11th day (although water was made freely taken by them) and, during the fasted stage, 10 ml/kg each of the test drugs for administration prepared in Examples and Comparative Examples were orally given to them at 9:00, 13:00 and 17:00 o'clock on the 11th day. Feeding was started as from 21:00 o'clock and, after 20 hours from the final administration, stomach of the animals was removed and Helicobacter pylori living therein was subjected to a viable cell counting. The stomachs were cut open and the contents were removed (no washing conducted) and homogenized in 20 ml of 0.1M phosphate buffer (pH 7.2) to give a sample for viable cell counting. […] The growing colonies were counted after 6 days. […] Incidentally, the eradication rate was calculated according to the following calculating expression. […]

solubility at 1 h ([1]; 0.05M phosphate buffer, aqueous buffer, pH 6.5, read-out: Solubility in 0.05M phosphate buffer (pH 6.5)): < 0.1 µg/mL
solubility at 1 h ([1]; 0.1M acetate buffer, aqueous buffer, pH 4.0, read-out: Solubility in 0.1M acetate buffer (pH 4.0)): < 0.1 µg/mL
solubility at 1 h ([1]; first fluid (The Japanese Pharmacopoeia), simulated gastric fluid, pH 1.2, read-out: Solubility in the first fluid (The Japanese Pharmacopoeia) (pH 1.2)): < 0.1 µg/mL
solubility at 1 h ([1]; water, read-out: Solubility in water): 24 µg/mL
Structure (SMILES): Cc1ccc(COC(=O)c2ccc(-c3ccc(OC(=O)[C@H]4CC[C@H](CNC(=N)N)CC4)cc3)cc2)cc1.Cl [Comp.Ex.1, 4-[4-(4-Methylbenzyloxycarbonyl)phenyl]phenyl trans-4-guanidinomethylcyclohexanecarboxylate hydrochloride]
Eradication Rate (%) [2]: 95.7% and 62.2% and 0%
